Structures are written as SMILES.

One data set addresses VEGFR2 (Homo sapiens (Human), UniProt P35968). In words: ADP-Glo kinase assay at high ATP concentration (0.5 mM), VEGFR2. It counts as biochemical. The settings on record: ATP 0.5 mM; read-out: VEGFR2 IC50 in the presence of high ATP concentration. For orientation: ADP-Glo turns the ADP formed in a reaction into a luminescent signal.
The target of the next data set is AurA (Homo sapiens (Human), UniProt O14965). In words: Kinase selectivity (Eurofins Cerep), AurA. It counts as biochemical. The settings on record: maximal concentration tested 10 μM. As to the method: (§1) The assays were performed in Eurofins Cerep (France). The concentration range of the compound under investigation was from 10^−9 M up to 10^−5 M final concentration.

A further data set addresses AMPKa. In words: Kinase selectivity (Eurofins Cerep), AMPKa. It counts as biochemical, human. The settings on record: maximal concentration tested 10 μM. The protocol:
as §1

For data set [1], the target named is Fyn-NanoLuc fusion protein (Homo sapiens (Human), UniProt P06241). The data set can be described thus: NanoBRET intracellular target engagement of Fyn in HEK293 transfected cells. The settings on record: 2 hours treatment, tracer 0.33 μM, read-out: IC50 binding value towards the Fyn-NanoLuc fusion protein. It counts as cell-based. The protocol: The NanoBRET™ TE intracellular kinase assay K-4 (Promega, #N2520) was used to determine the intracellular target engagement of Fyn kinase in HEK293 cells (ATCC®, Cat. CRL-1573) transiently transfected with Fyn-NanoLuc® fusion vector (Promega, #NV1411), therefore expressing the Fyn-NanoLuc© fusion protein. The tracer was used at the final concentration of 0.33 μM, and the treatment of cells with Compounds was performed for 2 hours. Luminescence values were measured at 450 nm and 610 nm (GloMax® Discover, Promega) and raw BRET ratio values for each sample were determined. Compounds that specifically engage the intracellular target protein-NanoLuc® fusion will result in a decrease in BRET signal and in lower BRET ratio values

Another data set concerns the target VEGFR (Homo sapiens (Human), UniProt P35968). The data set can be described thus: Inhibition of VEGF-induced VEGFR (Y1175)-phosphorylation in HUVEC-C cells. The data set is classed as cell-based. The note with it: starting from the concentration of 0.01 μM; VEGF 50 ng/ml.
A further data set has as its system IL-6. The data set can be described thus: Gene expression in rat articular chondrocytes under IL-1β stimulation, IL-6. The data set is classed as cell-based. The note with it: Rattus norvegicus, Chondrocyte; 6 h incubation.
The next data set relates to COX2. The data set can be described thus: Gene expression in rat articular chondrocytes under IL-1β stimulation, COX2. It counts as cell-based. The settings on record: Rattus norvegicus, Chondrocyte; 24 h incubation.
The test system of the next data set is ADAMTS-5. The data set can be described thus: Gene expression in rat articular chondrocytes under IL-1β stimulation, ADAMTS-5. The data set is classed as cell-based. The settings on record: Rattus norvegicus, Chondrocyte; 6 h incubation. The method in brief:
(§2)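 Rat chondrocytes, day 10 post-plating; switched to DMEM GlutaMAX I 0.4%; compound + cytokine 2 ng/ml; 6 h (IL-1β, ADAMTS-5) or 24 h (MMP3, MMP13); total RNA → cDNA → TaqMan qPCR, 18S-normalised.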

The subject of another data set is MMP3. In words: Gene expression in rat articular chondrocytes under IL-1β stimulation, MMP3. It counts as cell-based. The settings on record: Rattus norvegicus, Chondrocyte; 24 h incubation. The method in brief: as §2
A further data set has as its system MMP13. The data set can be described thus: Gene expression in rat articular chondrocytes under IL-1β stimulation, MMP13. It counts as cell-based. The note with it: Rattus norvegicus, Chondrocyte; 24 h incubation. The method in brief:
as §2

Data set [2] concerns bovine nasal septum cartilage. The data set can be described thus: Inhibition of cartilage degradation (GAG release) induced by IL-1α in a bovine in vitro model. It counts as cell-based. The method in brief: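 Cartilage punches (2 mm) from an 8-month-old male bovine nasal septum were cultured 48 h, then stimulated 48 h with IL-1α […] ± compound in DMEM + 0.1% BSA. Compound doses were set from 48 h rat chondrocyte toxicity. GAG in medium and papain-digested tissue was measured by DMB absorbance at 590 nm; degradation = medium GAG/total GAG × 100.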

The subject of a further data set is CFA induced hyperalgesia. The data set can be described thus: Complete Freund Adjuvant (CFA)-induced inflammatory pain in rats. It counts as in vivo, rat. The settings on record: intra-dermal.
Data set [3] can be described thus: Pharmacokinetics, oral route, mice. The settings on record: mouse, in vivo, read-out: Absolute bioavailability.
The nature of data set [4]: Pharmacokinetics, systemic routes, rats. It counts as in vivo.
Data set [5] can be described thus: Pharmacokinetics after administration into the knee joint of rats. It counts as in vivo. The note with it: suspension into the knee joint.
Data set [6] deals with rat primary articular chondrocytes. In words: Toxicity analysis (MTT) in rat primary chondrocytes.
Protocol: Purified chondrocytes were resuspended in DMEM glutaMAX 10% and plated in a 96X well plate for toxicity analysis and in a 6X well plate for gene expression analysis.
For toxicity analysis cells were then treated with the different compounds for 24 and 48 h. At the end of the incubation time, the medium was removed and was substituted with a mixture 10:1 of DMEM glutaMAX 10%—MTT (2 mg/ml) for 1 h at 37° C. in the cell incubator. After this incubation, the precipitated salt was dissolved with 100 μl of DMSO and the plate was read at 540 nm. The toxicity analysis were performed to decide the maximal non toxic concentration of each compound used in the gene expression assay.

Sequence of Fyn-NanoLuc fusion protein (P06241 whole entry, the tested form may be a part): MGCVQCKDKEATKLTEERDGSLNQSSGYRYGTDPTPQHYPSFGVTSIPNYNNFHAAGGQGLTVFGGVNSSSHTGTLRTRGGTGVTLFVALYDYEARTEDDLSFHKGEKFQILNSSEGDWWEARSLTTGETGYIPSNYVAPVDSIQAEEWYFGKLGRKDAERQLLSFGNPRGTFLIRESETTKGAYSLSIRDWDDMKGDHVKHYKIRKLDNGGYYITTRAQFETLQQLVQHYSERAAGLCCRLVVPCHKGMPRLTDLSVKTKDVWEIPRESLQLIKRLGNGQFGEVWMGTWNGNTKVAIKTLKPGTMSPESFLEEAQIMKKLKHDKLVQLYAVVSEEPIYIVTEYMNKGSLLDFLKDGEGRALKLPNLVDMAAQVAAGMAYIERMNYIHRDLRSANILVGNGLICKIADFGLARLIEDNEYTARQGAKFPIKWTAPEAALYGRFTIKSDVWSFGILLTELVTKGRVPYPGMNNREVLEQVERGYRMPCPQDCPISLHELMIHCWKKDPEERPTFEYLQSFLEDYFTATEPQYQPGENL
Sequence of VEGFR2 (P35968 20-1356): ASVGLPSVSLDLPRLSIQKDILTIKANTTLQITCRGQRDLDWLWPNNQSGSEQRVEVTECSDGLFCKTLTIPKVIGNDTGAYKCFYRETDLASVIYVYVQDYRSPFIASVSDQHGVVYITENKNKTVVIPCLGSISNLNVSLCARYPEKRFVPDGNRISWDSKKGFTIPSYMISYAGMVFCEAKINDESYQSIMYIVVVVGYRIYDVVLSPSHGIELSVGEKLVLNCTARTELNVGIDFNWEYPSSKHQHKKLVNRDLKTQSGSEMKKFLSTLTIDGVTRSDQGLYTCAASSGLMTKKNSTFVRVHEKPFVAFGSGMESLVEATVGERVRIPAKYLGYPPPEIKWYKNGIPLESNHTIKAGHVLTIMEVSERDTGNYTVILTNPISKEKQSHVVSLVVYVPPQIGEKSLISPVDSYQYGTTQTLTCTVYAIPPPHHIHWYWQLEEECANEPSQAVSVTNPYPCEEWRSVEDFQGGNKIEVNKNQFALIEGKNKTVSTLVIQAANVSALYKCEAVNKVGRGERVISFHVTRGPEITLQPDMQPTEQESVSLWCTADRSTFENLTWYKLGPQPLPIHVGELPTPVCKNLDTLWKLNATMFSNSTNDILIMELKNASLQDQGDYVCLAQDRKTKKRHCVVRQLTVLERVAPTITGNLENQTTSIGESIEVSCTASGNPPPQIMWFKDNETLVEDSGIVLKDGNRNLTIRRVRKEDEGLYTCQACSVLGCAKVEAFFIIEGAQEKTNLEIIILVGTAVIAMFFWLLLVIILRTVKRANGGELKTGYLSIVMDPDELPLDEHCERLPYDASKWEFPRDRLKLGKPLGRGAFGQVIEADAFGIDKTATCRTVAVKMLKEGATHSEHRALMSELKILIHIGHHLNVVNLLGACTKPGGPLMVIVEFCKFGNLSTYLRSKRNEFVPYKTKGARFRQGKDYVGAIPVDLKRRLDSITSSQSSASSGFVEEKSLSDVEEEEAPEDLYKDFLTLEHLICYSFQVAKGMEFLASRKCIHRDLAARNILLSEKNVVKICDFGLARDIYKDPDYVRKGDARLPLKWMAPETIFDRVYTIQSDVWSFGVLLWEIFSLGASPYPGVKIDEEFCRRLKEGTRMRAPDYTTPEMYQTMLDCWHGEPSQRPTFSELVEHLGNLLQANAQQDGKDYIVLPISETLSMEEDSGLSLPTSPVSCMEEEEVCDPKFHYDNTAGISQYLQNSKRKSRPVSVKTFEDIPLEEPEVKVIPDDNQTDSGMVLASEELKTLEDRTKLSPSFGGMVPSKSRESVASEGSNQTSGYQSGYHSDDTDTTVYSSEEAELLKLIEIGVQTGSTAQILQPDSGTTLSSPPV
Sequence of VEGFR (P35968 20-1356): as above
Sequence of AurA (O14965 whole entry): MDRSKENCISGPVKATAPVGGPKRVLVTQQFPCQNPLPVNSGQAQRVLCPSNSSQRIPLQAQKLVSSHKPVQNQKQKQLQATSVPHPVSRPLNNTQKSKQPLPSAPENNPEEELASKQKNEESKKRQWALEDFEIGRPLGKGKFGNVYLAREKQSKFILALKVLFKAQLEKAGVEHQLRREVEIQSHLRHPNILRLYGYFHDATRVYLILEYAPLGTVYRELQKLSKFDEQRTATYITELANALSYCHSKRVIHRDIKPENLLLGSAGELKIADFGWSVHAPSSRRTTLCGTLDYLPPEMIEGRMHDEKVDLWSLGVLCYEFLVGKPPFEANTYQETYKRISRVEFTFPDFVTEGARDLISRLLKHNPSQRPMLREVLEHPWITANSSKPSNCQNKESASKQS
Protocol for VEGFR2: The inhibition of Fyn and VEGFR2 kinase activity was evaluated in the presence of a fixed ATP concentration (0.5 mM), near to the millimolar range present in cells. The assay was performed by The ADP-Glo™ Kinase Assay (Promega), monitoring ADP produced in the kinase reaction. Kinase reaction was performed in 10 μl, according to supplier indication, in a white 384-well plate.
Inhibitor solutions in DMSO/Kinase buffer and the kinase (Fyn 2.5 ng/μl and VEGFR2 0.5 ng/μl final concentration in assay) were pre-incubate 15 minutes at room temperature. The range of inhibitor concentrations was from 10^−10 M up to 10^−5 M (final concentration in assay). To start the reaction, a substrate/ATP mix (0.5 mM final concentration, corresponding to 10× ATP KM value) was added to each sample. After 60 minutes incubation at room temperature, ADP-Glo™ Reagent and Kinase Detection Reagent, added and incubated in sequence according to supplier indication, allowed to stop and develop the kinase reaction. The percentage of inhibition, calculated towards the enzymatic activity in the absence of test compound, and the corresponding inhibition curves were analyzed by non-linear curve fitting (GraphPad software, version 7 for Windows), allowing to calculate the IC50 value.

On to `Cc1ccc(NC(=O)c2cccc(C(F)(F)F)c2)cc1CCc1cc(Nc2cnccn2)[nH]n1` [Compound 3, N-(4-methyl-3-(2-(5-(pyrazin-2-ylamino)-1H-pyrazol-3-yl)ethyl)phenyl)-3-(trifluoromethyl)benzamide], for which the IC50 is 58 nM on VEGFR2; more than 10000 nM on AurA; more than 10000 nM against AMPKa; 1500 nM in data set [1]; 18 nM in the data set with IL-6; 187 nM in the data set with COX2. Moreover, the IC50 turned out to be 34 nM in the data set on ADAMTS-5, 323 nM with MMP3 and 477 nM in the data set with MMP13. For the same molecule, the “Inhibitory activity on VEGFR-phosphorylation at Y1175 residue” value on VEGFR is “complete inhibitory activity”. The inhibition at 1 µM in [2] (Bos taurus, 1 μM, read-out: Bovine cartilage degradation induced by IL-1α, % inhibitory effect at max concentration) was found to be 100%. In [2] (at max concentration), the “Inhibitory effect on the GAG release” value is 95-100%. Also, in the data set with CFA induced hyperalgesia (3 μM (140 ng/paw), no CFA challenge), the “Effect on normal nociception in naïve animals” value is “did not modify the normal nociception”. The “Effect on pain behavior in CFA inflamed animals (mechanical pain threshold)” value in the data set on CFA induced hyperalgesia (maximal concentration of 3 μM (140 ng/paw)) is recorded as “completely reverted the pain behavior”. Further, the bioavailability (commonly the share of a dose that reaches the circulation, judged against a reference dose that is usually intravenous) in data set [3] is approximately 12%; in [4] (rat, in vivo, oral route, read-out: Absolute bioavailability), approximately 6%. For the same molecule, the Metabolism in rats result in data set [4] is given as “lack of important metabolism”. For the same molecule, the “Permanence in the synovial fluid and articular tissues (cartilage and synovial fat)” value in data set [5] was “at least 14 days”. The “First toxic concentration at 48 h in rat primary chondrocytes” value in data set [6] (48 h) is 3 µM. Besides, the “First toxic concentration at 24 h” value in data set [6] (rat primary chondrocytes, 24 h) came to 10 µM.

The values are drawn from patent US12509446B2, “FYN and VEGFR2 kinase inhibitors” (ROTTAPHARM BIOTECH S.R.L., priority 2019, dated 2025).
